Here are results for two compounds from patent US7846963B2, “2-oxo-heterocyclic compounds and the pharmaceutical compositions comprising the same” (Korea Research Institute of Bioscience and Biotechnology, priority 2003, dated 2010).

Experiment [1] deals with production of nitric oxide (NO) in RAW 264.7 cells. Description: Inhibition of NO (nitrite) production in LPS-activated RAW 264.7 macrophages, Griess reagent. The experiment is classed as cell-based, mouse. Conditions: Table 22, cited in b622 as nitrite/NO production result, LPS 0.3 μg/ml, 24 hours, compounds up to 10 μM, IC50 unit not given. The protocol: To test the inhibiting activity of the compounds prepared from above Examples 1 to 6 on the production of nitric oxide (NO) caused by activated macrophage by lipopolysaccharide (LPS), the amount of accumulated […] in the cells was determined as an indicator of NO production in the medium.
(§1) Each 200 μl of RAW 264.7 cells (ATCC, USA), a mouse macrophage cell line was seeded onto each well of 96-well microtiter plate (Nunc, Sweden) to the concentration ranging from 1×10^6 cells/ml to 5×10^6 cells/ml, and incubated in DMEM (Dulbeco's modified eagles medium) media containing 5% FBS (fetal bovine serum) at 37° C. in 5% CO2 incubator.
Various concentrations of the compounds of the present invention ranging from […] to 10 μM and LPS (Sigma, USA) in the final concentration of 0.3 μg/ml to activate the cell were treated to activate the cell simultaneously. The treated cells were cultured at 37° C. for 24 hours in 5% CO2 incubator and the cultured cells were collected after the cultivation.
And then, to the collected cell culture, an equal volume of Griess reagent (1% sulfanilamide, 0.1% naphthylethylenediamine dihydrochloride, and 2% phosphoric acid) was added and the culture was incubated at room temperature for 10 mins. The amount of nitrite production was determined by measuring the absorbance at 540 nm versus a NaNO2 standard curve. […]
Background: Griess reagent forms a coloured azo dye with nitrite.

The subject of experiment [2] is production of TNF-alpha in RAW 264.7 cells. Description: Inhibition of TNF-alpha production in LPS-treated RAW 264.7 cells, ELISA of culture supernatant. The experiment is classed as cell-based, mouse. The arrangement: TNF-alpha inhibition: scale not given here. Conditions: Table 23, LPS 0.3 μg/ml, 24 hours, compounds up to 10 μM, IC50 unit not given. The protocol: To test the inhibiting activity of the compounds prepared from above Examples on the production of TNF-alpha, the concentration of TNF-alpha in the cell supernatant was measured.
as §1
Various concentrations of the compounds of the present invention ranging from […] to 10 μM and LPS (Sigma, USA) in the final concentration of 0.3 μg/ml were treated to activated cell simultaneously. The treated cells were cultured at 37° C. for 24 hours in 5% CO2 incubator and the cultured cells were collected after the cultivation
And then the concentration of TNF-alpha secreted from the culture supernatant of RAW 264.7 cells was determined by ELISA according to the manufacture's instruction (R&D Systems, Minneapolis, Minn.).
The result was shown in Table 23 (AA: IC50's<1, A: IC50's<5, B: IC50's<10, C: IC50's>10).
On the technique in general: In an ELISA, binding on a coated surface is turned into a signal by an enzyme label.

For the compound `Cc1ccc(CCN2CC=C(CCC(=O)NO)C2=O)cc1` [Example 39, N-hydroxy-3-[2-oxo-1-(2-p-tolyl-ethyl)-2,5-dihydro-1H-pyrrol-3-yl]-propionamide], the NO production inhibition result in experiment [1] is recorded as “AAA”. Moreover, the TNF-alpha inhibition result in experiment [2] is recorded as “AAA”.

On to `O=C(CCC1=CCN(CCCc2ccc3ccccc3c2)C1=O)NO` [Example 56, N-hydroxy-3-[1-(3-naphthalene-2-yl-propyl)-2-oxo-2,5-dihydro-1H-pyrrol-3-yl]-propionamide], for which the NO production inhibition entry in experiment [1] is “AAA”. Besides, the TNF-alpha inhibition result in experiment [2] is recorded as “AAA”.
